#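 In this assay, cells in 96-well plates receive the compound at five concentrations for 48 hours. Endpoints are linearly interpolated between the surrounding concentrations. GI50 is the concentration that inhibits growth by half.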 Activity calls are given as the source filed them. No stated cut-off is given here; in the data, active = GI50 up to about 1.1 µM and inactive = higher.
# Experiments:
# Test in all cases: NCI tumour cell line growth inhibition, 48 h
# [1] = system: 786-0
# [2] = system: A549
# [3] = system: DU-145
# [4] = system: HCT-15
# [5] = system: HT-29
# [6] = system: M14
# [7] = system: MDA-MB-435
# [8] = system: NCI/ADR-RES
# [9] = system: OVCAR-3
# [10] = system: SF-295
# [11] = system: SF-539
# [12] = system: SK-MEL-28
# [13] = system: SK-MEL-5
# [14] = system: SK-OV-3
# [15] = system: SN12C
# [16] = system: SNB-75
# [17] = system: UACC-257
# [18] = system: UACC-62
# [19] = system: UO-31
Compound,GI50 [1],GI50 [2],GI50 [3],GI50 [4] [µM],GI50 [5],GI50 [6],GI50 [7],GI50 [8],GI50 [9],GI50 [10],GI50 [11],GI50 [12],GI50 [13],GI50 [14],GI50 [15],GI50 [16],GI50 [17],GI50 [18],GI50 [19]
O=c1cc(/C=C/c2ccc(O)c(O)c2)oc(/C=C/c2ccc(O)c(O)c2)c1,5.75 µM (inactive),13.4 µM (inactive),4.55 µM (inactive),5.68,7.91 µM (inactive),4.52 µM (inactive),1.43 µM (inactive),26.1 µM (inactive),3.19 µM (inactive),9.06 µM (inactive),2.75 µM (inactive),11.9 µM (inactive),3.19 µM (inactive),9.02 µM (inactive),4.29 µM (inactive),4.41 µM (inactive),5.31 µM (inactive),2.37 µM (inactive),4.66 µM (inactive)
CC(C)(C)C(O)CC(O)(C(F)(F)F)C(F)(F)F (centres undefined),> 100 µM (inactive),> 100 µM (inactive),> 100 µM (inactive),> 100,> 100 µM (inactive),> 100 µM (inactive),> 100 µM (inactive),> 100 µM (inactive),> 100 µM (inactive),> 100 µM (inactive),> 100 µM (inactive),> 100 µM (inactive),> 100 µM (inactive),> 100 µM (inactive),> 100 µM (inactive),56.9 µM (inactive),> 100 µM (inactive),> 100 µM (inactive),> 100 µM (inactive)
COc1cccc(C2c3cc4c(cc3OC(N3CCCC3)C2C)OCO4)c1O (centres undefined),4.89 µM (inactive),5.83 µM (inactive),4.41 µM (inactive),3.72,3.32 µM (inactive),3.18 µM (inactive),1.64 µM (inactive),3.7 µM (inactive),2.77 µM (inactive),3.51 µM (inactive),3.03 µM (inactive),6.5 µM (inactive),3.38 µM (inactive),4.36 µM (inactive),4.84 µM (inactive),2.4 µM (inactive),4.41 µM (inactive),4.33 µM (inactive),8.26 µM (inactive)
O=C1OCOC2(CCCC2)C1c1ccccc1 (centres undefined),> 100 µM (inactive),> 100 µM (inactive),> 100 µM (inactive),> 100,> 100 µM (inactive),> 100 µM (inactive),> 100 µM (inactive),> 100 µM (inactive),> 100 µM (inactive),> 100 µM (inactive),> 100 µM (inactive),> 100 µM (inactive),> 100 µM (inactive),> 100 µM (inactive),> 100 µM (inactive),> 100 µM (inactive),> 100 µM (inactive),> 100 µM (inactive),> 100 µM (inactive)
CO[C@@H]1C=C[C@@]23c4cc5c(cc4C(O)N(CC2O)C3C1)OCO5 (some centres undefined),3.21 µM (inactive),3.35 µM (inactive),3.81 µM (inactive),3.8,3 µM (inactive),3.14 µM (inactive),3.06 µM (inactive),13.9 µM (inactive),4.86 µM (inactive),5.41 µM (inactive),9.23 µM (inactive),5.04 µM (inactive),2.01 µM (inactive),3.66 µM (inactive),4.15 µM (inactive),2.82 µM (inactive),1.86 µM (inactive),3.13 µM (inactive),3.68 µM (inactive)
CC(=O)OCCOCn1cc(C=O)c2ccccc21,> 100 µM (inactive),> 100 µM (inactive),> 100 µM (inactive),> 100,> 100 µM (inactive),> 100 µM (inactive),> 100 µM (inactive),> 100 µM (inactive),> 100 µM (inactive),> 100 µM (inactive),> 100 µM (inactive),> 100 µM (inactive),75 µM (inactive),> 100 µM (inactive),> 100 µM (inactive),> 100 µM (inactive),> 100 µM (inactive),> 100 µM (inactive),> 100 µM (inactive)
NNC(=O)CCCCCCCC(=O)O,> 100 µM (inactive),> 100 µM (inactive),> 100 µM (inactive),> 100,> 100 µM (inactive),> 100 µM (inactive),> 100 µM (inactive),> 100 µM (inactive),> 100 µM (inactive),> 100 µM (inactive),> 100 µM (inactive),> 100 µM (inactive),> 100 µM (inactive),> 100 µM (inactive),> 100 µM (inactive),> 100 µM (inactive),> 100 µM (inactive),> 100 µM (inactive),> 100 µM (inactive)
Cc1nn(-c2ccccc2)c2nc3c(c(C)nn3-c3ccccc3)c(-c3ccc(C(F)(F)F)cc3)c12,60.1 µM (inactive),> 100 µM (inactive),> 100 µM (inactive),> 100,52.8 µM (inactive),> 100 µM (inactive),> 100 µM (inactive),> 100 µM (inactive),> 100 µM (inactive),> 100 µM (inactive),72.3 µM (inactive),> 100 µM (inactive),> 100 µM (inactive),> 100 µM (inactive),> 100 µM (inactive),39.4 µM (inactive),> 100 µM (inactive),> 100 µM (inactive),> 100 µM (inactive)
CC(=O)OCC1OC(SC2=NC(=O)/C(=C/c3ccccc3)S2)C(OC(C)=O)C(OC(C)=O)C1OC(C)=O (centres undefined),16.9 µM (inactive),44 µM (inactive),95.1 µM (inactive),59,37.8 µM (inactive),31.9 µM (inactive),17 µM (inactive),30.4 µM (inactive),19.7 µM (inactive),62.8 µM (inactive),23 µM (inactive),30.8 µM (inactive),18.8 µM (inactive),45.7 µM (inactive),49.8 µM (inactive),18.2 µM (inactive),34.2 µM (inactive),21.1 µM (inactive),23.1 µM (inactive)
NC1CC2NC3CCCCC3NC2CC1N (centres undefined),30 µM (inactive),58.3 µM (inactive),50.2 µM (inactive),21.7,27.4 µM (inactive),67.9 µM (inactive),36.1 µM (inactive),30.1 µM (inactive),40.8 µM (inactive),31.8 µM (inactive),80.4 µM (inactive),74.5 µM (inactive),27.7 µM (inactive),28.4 µM (inactive),35 µM (inactive),25.1 µM (inactive),37.9 µM (inactive),33.6 µM (inactive),27 µM (inactive)
CNC(=O)CCCNC(=O)CCCC(=O)N(C)C,> 100 µM (inactive),> 100 µM (inactive),> 100 µM (inactive),> 100,> 100 µM (inactive),> 100 µM (inactive),> 100 µM (inactive),> 100 µM (inactive),> 100 µM (inactive),> 100 µM (inactive),> 100 µM (inactive),> 100 µM (inactive),> 100 µM (inactive),> 100 µM (inactive),> 100 µM (inactive),> 100 µM (inactive),> 100 µM (inactive),> 100 µM (inactive),> 100 µM (inactive)
